For 15 molecules, Ki and efflux ratio results are on record in patent US10285989B2, “Pyrimidinone amide compounds as PDE2 inhibitors” (Merck Sharp & Dohme Corp., priority 2015, dated 2019).

Where two headings read alike, the source gives them in different places.

The target of one data set is human PDE2A1 (Homo sapiens (Human), UniProt O00408). Description: PDE2 IMAP FP inhibition assay, human PDE2A1 (selectivity panel format). The class given is biochemical. Put shortly:
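IMAP fluorescence polarization assay; substrate 50 nM FAM-cAMP with 1000 nM cGMP, enzyme at ~20% conversion, in 10 mM Tris pH 7.2, 10 mM MgCl2, 1 mM DTT, 0.01% Tween-20. 60 min room temperature, stopped with IMAP binding reagent, 1 h, then parallel/perpendicular fluorescence read.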

In the next data set the target is P-glycoprotein (P-gp) (Homo sapiens (Human), UniProt P08183). Description: P-gp transport, experimental BA/AB ratio, human. The class given is in vitro ADME. To be noted: LLC-PK1, 1 μM substrate concentration. The text has this:
(§1) See Doan et al. “Passive permeability and P-glycoprotein-mediated efflux differentiate central nervous system (CNS) and non-CNS marketed drugs”, J. Pharm. Exper. […] Desirable human BA/AB ratio is less than 2.0. […] See, for example, Desai, et al. Integration of in Silico and in Vitro Tools for Scaffold Optimization during Drug Discovery: Predicting P-glycoprotein Efflux” Mol. Pharmac.

The target in a further data set is Rhesus PDE2A3 (Macaca mulatta, UniProt B3VTJ2). The data set is described as follows: PDE2 fluorescence polarization (IMAP FP) inhibition assay, rhesus PDE2A3. The class given is biochemical, rhesus macaque.
The target in data set [1] is P-glycoprotein (P-gp, rat Mdr1a) (Rattus norvegicus, UniProt Q6PSM0). The data set is described as follows: P-gp transport, experimental BA/AB ratio, rat LLC-Mdr1a. The class given is in vitro ADME. The following applies: LLC-PK1; rat LLC-Mdrla; 1 μM substrate concentration.
Description: as §1

Where [2] appears, read: Lab B, read-out: Human PDE2 Ki (nM) - Lab B.
Setting [3] is: Lab B, read-out: Rhesus PDE2 Ki (nM) - Lab B.
The mark [4] stands for this setting: Lab A, read-out: Human PDE2 Ki (nM) - Lab A.
The mark [5] stands for this setting: Lab A, read-out: Rhesus PDE2 Ki (nM) - Lab A.

Rhesus PDE2A3, sequence (B3VTJ2 1-941): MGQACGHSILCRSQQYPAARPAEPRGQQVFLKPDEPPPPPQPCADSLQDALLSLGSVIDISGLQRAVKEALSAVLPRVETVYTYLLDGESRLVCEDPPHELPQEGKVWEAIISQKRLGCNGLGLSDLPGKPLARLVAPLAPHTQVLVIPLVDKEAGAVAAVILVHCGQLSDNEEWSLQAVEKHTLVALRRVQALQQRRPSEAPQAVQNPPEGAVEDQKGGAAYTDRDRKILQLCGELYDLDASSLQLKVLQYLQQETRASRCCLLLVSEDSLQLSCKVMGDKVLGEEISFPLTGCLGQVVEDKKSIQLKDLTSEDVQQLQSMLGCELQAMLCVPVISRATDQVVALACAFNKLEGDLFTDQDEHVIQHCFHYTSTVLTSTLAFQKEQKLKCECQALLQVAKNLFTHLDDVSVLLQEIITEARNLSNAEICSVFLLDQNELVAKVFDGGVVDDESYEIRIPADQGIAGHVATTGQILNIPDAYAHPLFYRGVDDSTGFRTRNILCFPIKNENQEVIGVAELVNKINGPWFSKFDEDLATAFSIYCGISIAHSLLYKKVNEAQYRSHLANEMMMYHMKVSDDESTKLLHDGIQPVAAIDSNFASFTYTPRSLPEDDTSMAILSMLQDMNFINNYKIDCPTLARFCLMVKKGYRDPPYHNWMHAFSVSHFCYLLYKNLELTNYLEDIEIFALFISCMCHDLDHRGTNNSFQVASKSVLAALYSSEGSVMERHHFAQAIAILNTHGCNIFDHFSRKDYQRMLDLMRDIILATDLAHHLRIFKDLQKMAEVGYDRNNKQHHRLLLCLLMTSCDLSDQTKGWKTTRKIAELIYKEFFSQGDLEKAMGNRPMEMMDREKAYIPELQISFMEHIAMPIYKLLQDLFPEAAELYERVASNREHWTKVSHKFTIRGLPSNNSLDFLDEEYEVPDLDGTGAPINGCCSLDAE
P-glycoprotein (P-gp), sequence (P08183 whole entry): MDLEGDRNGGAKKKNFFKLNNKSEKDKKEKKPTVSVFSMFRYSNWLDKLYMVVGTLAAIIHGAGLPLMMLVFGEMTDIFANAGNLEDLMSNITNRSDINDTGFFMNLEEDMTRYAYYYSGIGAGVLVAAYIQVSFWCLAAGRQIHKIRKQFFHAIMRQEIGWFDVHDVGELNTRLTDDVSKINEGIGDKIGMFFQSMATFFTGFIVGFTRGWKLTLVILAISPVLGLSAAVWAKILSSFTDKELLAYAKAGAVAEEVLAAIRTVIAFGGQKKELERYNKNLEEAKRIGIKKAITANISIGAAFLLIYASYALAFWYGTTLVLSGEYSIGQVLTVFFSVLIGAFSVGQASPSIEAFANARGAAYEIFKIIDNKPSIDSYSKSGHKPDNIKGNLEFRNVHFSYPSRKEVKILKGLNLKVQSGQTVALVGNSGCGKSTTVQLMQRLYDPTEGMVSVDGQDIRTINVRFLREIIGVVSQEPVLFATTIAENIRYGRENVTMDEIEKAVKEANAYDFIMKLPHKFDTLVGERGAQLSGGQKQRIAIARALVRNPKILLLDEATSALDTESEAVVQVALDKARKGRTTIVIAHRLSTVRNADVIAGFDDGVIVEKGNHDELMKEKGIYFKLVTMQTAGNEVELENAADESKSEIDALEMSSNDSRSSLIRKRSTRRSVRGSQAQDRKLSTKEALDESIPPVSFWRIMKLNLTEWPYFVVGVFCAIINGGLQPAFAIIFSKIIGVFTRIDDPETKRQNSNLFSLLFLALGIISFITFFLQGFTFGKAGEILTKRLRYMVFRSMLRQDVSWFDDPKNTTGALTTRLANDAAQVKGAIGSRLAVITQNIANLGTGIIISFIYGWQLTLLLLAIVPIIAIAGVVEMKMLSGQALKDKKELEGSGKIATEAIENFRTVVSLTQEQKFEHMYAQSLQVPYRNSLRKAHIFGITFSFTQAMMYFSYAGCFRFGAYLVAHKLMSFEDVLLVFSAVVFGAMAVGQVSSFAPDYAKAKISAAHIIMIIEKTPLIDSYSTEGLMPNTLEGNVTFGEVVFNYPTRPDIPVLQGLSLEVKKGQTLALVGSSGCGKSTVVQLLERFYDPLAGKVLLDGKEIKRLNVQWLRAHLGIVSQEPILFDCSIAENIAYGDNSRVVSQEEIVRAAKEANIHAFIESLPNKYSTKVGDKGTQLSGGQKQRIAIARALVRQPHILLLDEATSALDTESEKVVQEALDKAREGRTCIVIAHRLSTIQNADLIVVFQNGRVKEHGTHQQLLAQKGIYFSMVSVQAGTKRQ
P-glycoprotein (P-gp, rat Mdr1a), sequence (Q6PSM0 1-1272): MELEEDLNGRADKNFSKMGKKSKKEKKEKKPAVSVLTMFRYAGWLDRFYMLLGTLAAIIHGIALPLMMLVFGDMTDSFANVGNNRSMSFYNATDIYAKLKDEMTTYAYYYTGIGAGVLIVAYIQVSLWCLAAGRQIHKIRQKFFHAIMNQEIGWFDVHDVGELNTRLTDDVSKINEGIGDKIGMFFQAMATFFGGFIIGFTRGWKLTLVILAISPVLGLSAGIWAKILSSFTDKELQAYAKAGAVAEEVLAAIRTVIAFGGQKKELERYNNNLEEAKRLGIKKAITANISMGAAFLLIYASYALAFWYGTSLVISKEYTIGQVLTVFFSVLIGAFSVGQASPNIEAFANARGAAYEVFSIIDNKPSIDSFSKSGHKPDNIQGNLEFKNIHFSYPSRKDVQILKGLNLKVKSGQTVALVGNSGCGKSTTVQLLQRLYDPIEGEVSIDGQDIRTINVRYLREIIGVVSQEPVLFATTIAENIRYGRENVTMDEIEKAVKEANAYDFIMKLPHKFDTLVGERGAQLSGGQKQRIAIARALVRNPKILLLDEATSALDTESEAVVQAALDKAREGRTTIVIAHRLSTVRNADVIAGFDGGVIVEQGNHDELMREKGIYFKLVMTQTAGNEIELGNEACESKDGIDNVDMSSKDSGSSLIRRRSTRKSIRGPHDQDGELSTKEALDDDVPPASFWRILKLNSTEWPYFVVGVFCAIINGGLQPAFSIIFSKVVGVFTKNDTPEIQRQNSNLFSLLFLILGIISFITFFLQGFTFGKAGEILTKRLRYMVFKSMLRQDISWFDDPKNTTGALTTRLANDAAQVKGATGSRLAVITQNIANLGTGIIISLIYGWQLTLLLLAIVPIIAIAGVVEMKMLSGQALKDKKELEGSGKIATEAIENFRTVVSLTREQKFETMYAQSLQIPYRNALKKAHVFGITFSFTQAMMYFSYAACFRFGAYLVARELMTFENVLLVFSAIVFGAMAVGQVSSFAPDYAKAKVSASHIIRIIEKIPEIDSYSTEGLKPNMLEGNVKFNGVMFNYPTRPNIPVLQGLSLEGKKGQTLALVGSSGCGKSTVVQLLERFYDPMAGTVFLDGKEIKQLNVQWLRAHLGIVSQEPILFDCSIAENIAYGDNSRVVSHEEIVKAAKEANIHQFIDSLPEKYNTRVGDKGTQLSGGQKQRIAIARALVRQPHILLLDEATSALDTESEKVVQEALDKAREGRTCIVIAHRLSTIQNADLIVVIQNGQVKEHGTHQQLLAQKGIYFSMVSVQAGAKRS
human PDE2A1, sequence (O00408 other isoform, or with tags, fused parts or gaps): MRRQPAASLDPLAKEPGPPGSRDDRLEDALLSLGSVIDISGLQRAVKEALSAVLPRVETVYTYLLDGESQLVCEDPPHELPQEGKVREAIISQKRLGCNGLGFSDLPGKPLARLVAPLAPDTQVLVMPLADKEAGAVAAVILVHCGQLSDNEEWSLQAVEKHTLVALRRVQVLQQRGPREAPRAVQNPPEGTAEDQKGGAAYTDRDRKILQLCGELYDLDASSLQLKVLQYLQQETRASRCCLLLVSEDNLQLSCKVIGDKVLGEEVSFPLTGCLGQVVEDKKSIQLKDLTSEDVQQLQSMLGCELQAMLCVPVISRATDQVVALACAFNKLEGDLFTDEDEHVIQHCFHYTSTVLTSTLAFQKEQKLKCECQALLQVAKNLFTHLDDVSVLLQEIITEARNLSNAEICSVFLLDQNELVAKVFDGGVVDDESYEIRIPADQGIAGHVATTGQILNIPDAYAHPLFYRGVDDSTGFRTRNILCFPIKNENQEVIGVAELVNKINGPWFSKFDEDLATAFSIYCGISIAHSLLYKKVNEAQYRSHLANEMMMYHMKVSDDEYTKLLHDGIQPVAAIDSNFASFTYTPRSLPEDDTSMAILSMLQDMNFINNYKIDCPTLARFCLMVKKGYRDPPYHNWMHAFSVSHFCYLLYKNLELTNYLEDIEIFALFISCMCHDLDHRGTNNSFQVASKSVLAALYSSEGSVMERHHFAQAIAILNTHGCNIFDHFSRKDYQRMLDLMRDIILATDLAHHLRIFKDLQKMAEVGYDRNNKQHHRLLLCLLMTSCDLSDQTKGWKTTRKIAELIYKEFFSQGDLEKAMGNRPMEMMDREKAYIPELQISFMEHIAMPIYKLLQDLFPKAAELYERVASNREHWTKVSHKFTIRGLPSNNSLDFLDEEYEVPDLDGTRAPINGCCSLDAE

As for `CCC(C)(NC(=O)c1cc(=O)[nH]c(N(C)C)n1)c1ccc(C(F)(F)F)cc1F` (single isomer, unassigned) [Example 130, (R)- or (S)-2-(dimethylamino)-N-{1-[2-fluoro-4-(trifluoromethyl)phenyl]-1-methylpropyl}-6-oxo-1,6-dihydro-pyrimidine-4-carboxamide], the Ki (usually the dissociation constant of the complex between target and ligand, obtained from inhibition or displacement) at human PDE2A1 (setting [2]) worked out at 0.89 nM; on Rhesus PDE2A3 (setting [3]) it was 1.2 nM. Besides, the efflux ratio (commonly a quotient of directional permeabilities that is used to spot active efflux) at 1 μM at P-glycoprotein (P-gp) is 0.6; in data set [1], 1.3.

Take `COc1ccc(OCCCOc2nc(C(=O)NC(C)c3ccc(C(F)(F)F)cc3)cc(=O)[nH]2)cc1` (centres unmarked) [Example 194, 2-[3-(4-methoxyphenoxy)propoxy]-6-oxo-N-{1-[4-(trifluoromethyl)phenyl]ethyl}-1,6-dihydropyrimidine-4-carboxamide]: the Ki is 4.4 nM on human PDE2A1 (setting [4]) and approximately 5.2 nM at Rhesus PDE2A3 (setting [5]). Also, the efflux ratio at 1 μM at P-glycoprotein (P-gp) was found to be 1; in data set [1], 8.4.

For the molecule `CC(C)[C@@H](NC(=O)c1cc(=O)[nH]c(N)n1)c1ccc(SC(F)(F)F)cc1` [Example 154, 2-amino-N-[(1R)-2-methyl-1-{4-[(trifluoromethyl)sulfanyl]phenyl}propyl]-6-oxo-1,6-dihydropyrimidine-4-carboxamide], the Ki on human PDE2A1 (setting [4]) is 9.9 nM; at Rhesus PDE2A3 (setting [5]), 18 nM. For the same molecule, the figures for the efflux ratio at 1 μM (on P-glycoprotein (P-gp); in data set [1]) were 10.4 and 24.7, respectively.

Regarding `C[C@@H](NC(=O)c1cc(=O)[nH]c(N(C)C)n1)c1ccc(C2CC2)c(F)c1` [Example 40, N-[(1R)-1-(4-cyclopropyl-3-fluorophenyl)ethyl]-2-(dimethylamino)-6-oxo-1,6-dihydropyrimidine-4-carboxamide], the Ki at human PDE2A1 (setting [2]) came to 1.02 nM; at Rhesus PDE2A3 (setting [3]), 0.87 nM. For the same molecule, the efflux ratio at 1 μM at P-glycoprotein (P-gp) was 0.5; in data set [1], 2.4.

In the case of `C[C@@H](NC(=O)c1cc(=O)[nH]c(N(C)C)n1)c1ccc(SC(F)(F)F)c(F)c1` [Example 96, 2-(dimethylamino)-N-[(1R)-1-{3-fluoro-4-[(trifluoromethyl)sulfanyl]phenyl}ethyl]-6-oxo-1,6-dihydropyrimidine-4-carboxamide], the Ki is 0.2 nM at human PDE2A1 (setting [4]) and 0.36 nM on Rhesus PDE2A3 (setting [5]). In addition, the efflux ratio at 1 μM on P-glycoprotein (P-gp) was 0.5; in data set [1] it was 2.5.

As for `CC(C)[C@@H](NC(=O)c1cc(=O)[nH]c(N2CC[C@@H](F)C2)n1)c1ccc(OC(F)(F)F)c(F)c1` [Example 163, 2-[(3R)-3-fluoropyrrolidin-1-yl]-N-{(R)-1-[3-fluoro-4-(trifluoromethoxy)phenyl]-2-methylpropyl}-6-oxo-1,6-dihydropyrimidine-4-carboxamide], the Ki is 4.2 nM on human PDE2A1 (setting [2]), 4.1 nM on Rhesus PDE2A3 (setting [5]) and 5 nM on Rhesus PDE2A3 (setting [3]). Further, the efflux ratio at 1 μM amounted to 0.7 on P-glycoprotein (P-gp) and 15.8 in data set [1].

As to `O=C(NC1(c2ccc(C(F)(F)F)c(F)c2)CC1)c1cc(=O)[nH]c(N2CCCC2)n1` [Example 1, N-(1-(3-fluoro-4-(trifluoromethyl)phenyl)cyclopropyl)-6-oxo-2-(pyrrolidin-1-yl)-1,6-dihydropyrimidine-4-carboxamide], the Ki at human PDE2A1 (setting [4]) was 0.48 nM; at Rhesus PDE2A3 (setting [5]) it was 1.3 nM. Further, the efflux ratio at 1 μM on P-glycoprotein (P-gp) amounted to 0.8; in data set [1] it was 7.2.

As to `CN(C)c1nc(C(=O)N[C@@H](c2ccc(C3CC3)cc2)C(C)(C)C)cc(=O)[nH]1` [Example 35, N-[(1R)-1-(4-cyclopropylphenyl)-2,2-dimethylpropyl]-2-(dimelhylamino)-6-oxo-1,6-dihydropyrimidine-4-carboxamide], the Ki at human PDE2A1 (setting [2]) came to 0.11 nM; at Rhesus PDE2A3 (setting [3]), 0.12 nM. The results for the efflux ratio at 1 μM (on P-glycoprotein (P-gp); in data set [1]) were 0.5 and 3.6, respectively.

For `CN(C)c1nc(C(=O)N[C@@H](c2ccc(C(F)F)cc2)C(C)(C)C)cc(=O)[nH]1` [Example 60, N-{(1R)-1-[4-(difluoromethyl)phenyl]-2,2-dimethylpropyl}-2-(dimethylamino)-6-oxo-1,6-dihydropyrimidine-4-carboxamide], the Ki on human PDE2A1 (setting [2]) turned out to be 0.29 nM; on Rhesus PDE2A3 (setting [3]), 0.42 nM. The efflux ratio at 1 μM worked out at 0.8 at P-glycoprotein (P-gp) and 4.3 in data set [1].

Regarding `CN(C)c1nc(C(=O)N[C@@H](c2ccc(C3CC3)c(F)c2)C2CC2)cc(=O)[nH]1` [Example 56, N-[(R)-cyclopropyl(4-cyclopropyl-3-fluorophenyl)methyl]-2-(dimethylamino)-6-oxo-1,6-dihydropyrimidine-4-carboxamide], the results for the Ki at human PDE2A1 (setting [2]) and on Rhesus PDE2A3 (setting [3]) were 0.51 nM and 0.71 nM, respectively. Further, the efflux ratio at 1 μM was found to be 0.3 on P-glycoprotein (P-gp) and 1.7 in data set [1].

Take `CN(C)c1nc(C(=O)NC(c2ccc(SC(F)(F)F)c(F)c2)C2(C)CC2)cc(=O)[nH]1` (single isomer, unassigned) [Example 120, (R)- or (S)-2-(dimethylamino)-N-[{3-fluoro-4-[(trifluoromethyl)sulfanyl]phenyl}(1-methylcyclopropyl)methyl]-6-oxo-1,6-dihydropyrimidine-4-carboxamide]: the results for the inhibition constant (Ki) on human PDE2A1 (setting [2]) and at Rhesus PDE2A3 (setting [3]) were 1.9 nM and 1.8 nM, respectively. The efflux ratio at 1 μM on P-glycoprotein (P-gp) is 27.3; in data set [1], 47.2.

As to `CNc1nc(C(=O)N[C@@H](c2ccc(OC(F)(F)F)c(F)c2)C(C)C)cc(=O)[nH]1` [Example 151, N-{(1R)-1-[3-fluoro-4-(trifluoromethoxy)phenyl]-2-methylpropyl}-2-(methylamino)-6-oxo-1,6-dihydro-pyrimidine-4-carboxamide], the Ki was 2.8 nM at human PDE2A1 (setting [4]) and 4.7 nM at Rhesus PDE2A3 (setting [5]). The efflux ratio at 1 μM at P-glycoprotein (P-gp) was determined as 6.5; in data set [1], 18.7.

`CN(C)c1nc(C(=O)N[C@@H](c2ccc(C(F)(F)F)cc2)C2(C)CC2)cc(=O)[nH]1` [Example 43, 2-(dimethylamino)-N-{(R)-(1-methylcyclopropyl)[4-(trifluoromethyl)phenyl]methyl}-6-oxo-1,6-dihydropyrimidine-4-carboxamide]: the Ki on human PDE2A1 (setting [2]) came out at 0.32 nM; at Rhesus PDE2A3 (setting [3]), 0.23 nM. Also, the figures for the efflux ratio at 1 μM (at P-glycoprotein (P-gp); in data set [1]) were 0.7 and 2.3, respectively.

Consider `CC[C@@H](NC(=O)c1cc(=O)[nH]c(N(C)C)n1)c1ccc(C(F)(F)F)c(F)c1` [Example 106, 2-(dimethylamino)-N-{(1R)-1-[3-fluoro-4-(trifluoromethyl)phenyl]propyl}-6-oxo-1,6-dihydropyrimidine-4-carboxamide], for which the Ki on human PDE2A1 (setting [2]) was found to be 1.3 nM; at Rhesus PDE2A3 (setting [5]), 0.81 nM; at Rhesus PDE2A3 (setting [3]) it was 1.4 nM. Moreover, the efflux ratio at 1 μM on P-glycoprotein (P-gp) worked out at 0.5; in data set [1], 3.5.

For the molecule `O=C(N[C@@H](c1ccc(S(F)(F)(F)(F)F)cc1)C1CC1)c1cc(=O)[nH]c(N2CCCC2)n1` [Example 99, N-{(R)-cyclopropyl[4-(pentafluoro-λ^6-sulfanyl)phenyl]methyl}-6-oxo-2-pyrrolidin-1-yl-1,6-dihydropyrimidine-4-carboxamide], the inhibitory constant (Ki) on human PDE2A1 (setting [2]) and on Rhesus PDE2A3 (setting [3]) was 1.1 nM each time. Further, the figures for the efflux ratio at 1 μM (on P-glycoprotein (P-gp); in data set [1]) were 0.7 and 5.8, respectively.
